{"source": "patent US20020132276A1", "about": "“FACS method for detecton of GPIIb/IIIa inhibitor dependent activators in plasma samples” (priority 1999, published 2002)", "key": {"[1]": {"tested_on": "platelet CD62", "test": "DDPASFCA in alternative microtiter plates (Costar Serocluster #3897 versus #3898)", "assay_type": "cell-based, human", "conditions": "with minus without Compound A 200 nM", "experimental": "ADP and DPC38 were used as sources of DDPASs. 2 μL of citrated PRP (DPC3) was added to either Costar Serocluster® 96 well V-bottom microtiterplates (#3897) or #3898 microtiter plates (Costar Serocluster®) (rated as “hydrophilic” in nature by the manufacturer). Platelets were then treated with and without Compound A (200 nM) with the indicated concentrations of ADP. Similarly, DDPAS positive PRP (DPC38) was added to wells of both types of plates and treated with and without Compound A (200 nM). Reactions were incubated without shaking for 120 minutes. After this time, 20 μL of phycoerythrin conjugated anti-CD62 (anti-CD62-PE, Bectin Dickinson) was added. After 30 minutes the samples were diluted with 150 μL flow buffer and bound anti-CD62-PE measured as described in Example 1.\nDelta SC=Delta Fluorescence for Costar Serocluster microtiter plates\nDelta H=Delta Fluorescence for H3898 microtiter plates"}, "[2]": {"tested_on": "platelet CD62", "test": "Detection of ADP as a GPIIb/IIIa DDPAS by DDPASFCA", "assay_type": "cell-based, human", "conditions": "for + compound Med F12: + Compound A 1 μM; for no compound Med F12: no Compound A; for Delta Med F12: with minus without Compound A 1 μM", "experimental": "Adenosine diphosphate (ADP) was evaluated as a possible DDPAS as follows: Compound A (final concentration 1 μM) or vehicle was added to 25 μL of freshly prepared PRP in wells of a 96-well microtiter plate. Another set of wells received vehicle. After 10 minutes, 2.5 μL of from each well was transferred to microtiter wells containing only 20 μL of anti-CD62-PE. After incubation for 30 minutes, samples were analyzed by flow cytometry as in Example 1."}, "[3]": {"conditions": "platelet donor DPC3, ADP 100 uM"}}}
{"compound": "Nc1ncnc2c1ncn2[C@@H]1O[C@H](COP(=O)(O)OP(=O)(O)O)[C@@H](O)[C@H]1O", "note": "[ADP, Adenosine diphosphate]", "values": [{"measurement": "Delta CS (Delta Fluorescence for Costar Serocluster microtiter plates)", "setting": "[1]; platelet donor DPC3, ADP 10 uM", "value": 89}, {"measurement": "Delta H (Delta Fluorescence for H3898 microtiter plates)", "setting": "[1]; platelet donor DPC3, ADP 10 uM", "value": 157}, {"measurement": "Delta CS (Delta Fluorescence for Costar Serocluster microtiter plates)", "setting": "[1]; [3]", "value": 82}, {"measurement": "Delta H (Delta Fluorescence for H3898 microtiter plates)", "setting": "[1]; [3]", "value": 168}, {"measurement": "+ compound Med F12", "setting": "[2]; ADP 0.4 μM final", "value": 20}, {"measurement": "no compound Med F12", "setting": "[2]; ADP 0.4 μM final", "value": 14}, {"measurement": "Delta Med F12", "setting": "[2]; ADP 0.4 μM final", "value": 5}, {"measurement": "+ compound Med F12", "setting": "[2]; ADP 2 μM final", "value": 89}, {"measurement": "no compound Med F12", "setting": "[2]; ADP 2 μM final", "value": 48}, {"measurement": "Delta Med F12", "setting": "[2]; ADP 2 μM final", "value": 40}, {"measurement": "+ compound Med F12", "setting": "[2]; ADP 10 μM final", "value": 208}, {"measurement": "no compound Med F12", "setting": "[2]; ADP 10 μM final, PRP, 10 minutes", "value": 126}, {"measurement": "Delta Med F12", "setting": "[2]; ADP 10 μM final", "value": 82}]}
